# Results as given in ChEMBL document CHEMBL3112395, “Synthesis and structure-activity relationship studies of N-terminal analogues of the antimicrobial peptide tridecaptin A(1)” (J Med Chem, 2014).
# Legend:
# Assay type in all cases: functional
# Listeria monocytogenes = experiment: Antibacterial activity against Listeria monocytogenes ATCC […] assessed as growth inhibition by broth dilution method
# Enterococcus faecium = experiment: Antibacterial activity against Enterococcus faecium ATCC 19434 assessed as growth inhibition by broth dilution method
# Enterococcus faecalis = experiment: Antibacterial activity against Enterococcus faecalis ATCC 29212 assessed as growth inhibition by broth dilution method
# Pseudomonas aeruginosa = experiment: Antibacterial activity against Pseudomonas aeruginosa ATCC 27853 assessed as growth inhibition by broth dilution method
# Acinetobacter baumannii = experiment: Antibacterial activity against Acinetobacter baumannii ATCC 19606 assessed as growth inhibition by broth dilution method
# Staphylococcus aureus = experiment: Antibacterial activity against Staphylococcus aureus ATCC 29213 assessed as growth inhibition by broth dilution method
# Campylobacter jejuni = experiment: Antibacterial activity against Campylobacter jejuni NCTC 11168 assessed as growth inhibition by broth dilution method
# Klebsiella pneumoniae = experiment: Antibacterial activity against Klebsiella pneumoniae ATCC 13883 assessed as growth inhibition by broth dilution method
# Salmonella enterica = experiment: Antibacterial activity against Salmonella enterica ATCC 13311 assessed as growth inhibition by broth dilution method
# Escherichia coli = experiment: Antibacterial activity against Escherichia coli ATCC 25922 assessed as growth inhibition by broth dilution method
SMILES,MIC (Listeria monocytogenes),MIC (Enterococcus faecium),MIC (Enterococcus faecalis),MIC (Pseudomonas aeruginosa),MIC (Acinetobacter baumannii),MIC (Staphylococcus aureus),MIC (Campylobacter jejuni),MIC (Klebsiella pneumoniae),MIC (Salmonella enterica),MIC (Escherichia coli)
CC[C@H](C)[C@@H](NC(=O)[C@@H](NC(=O)[C@H](CCC(=O)O)NC(=O)[C@H](Cc1ccccc1)NC(=O)[C@@H](CCN)NC(=O)[C@H](CCN)NC(=O)[C@H](CO)NC(=O)[C@@H](Cc1c[nH]c2ccccc12)NC(=O)[C@@H](CO)NC(=O)CNC(=O)[C@@H](CCN)NC(=O)[C@H](NC(C)=O)C(C)C)C(C)C)C(=O)N[C@@H](C)C(=O)O,> 100 µg/mL,> 100 µg/mL,> 100 µg/mL,> 100 µg/mL,> 100 µg/mL,> 100 µg/mL,100 µg/mL,50 µg/mL,100 µg/mL,50 µg/mL
CC[C@H](C)[C@@H](NC(=O)[C@@H](NC(=O)[C@H](CCC(=O)O)NC(=O)[C@H](Cc1ccccc1)NC(=O)[C@@H](CCN)NC(=O)[C@H](CCN)NC(=O)[C@H](CO)NC(=O)[C@@H](Cc1c[nH]c2ccccc12)NC(=O)[C@@H](CO)NC(=O)CNC(=O)[C@@H](CCN)NC(=O)[C@H](NC(=O)CCC1c2ccccc2-c2ccccc21)C(C)C)C(C)C)C(=O)N[C@@H](C)C(=O)O,100 µg/mL,> 100 µg/mL,> 100 µg/mL,> 100 µg/mL,> 100 µg/mL,> 100 µg/mL,1.56 µg/mL,100 µg/mL,> 100 µg/mL,6.25 µg/mL
CCCCCCCCCCCCCCCC(=O)N[C@@H](C(=O)N[C@H](CCN)C(=O)NCC(=O)N[C@H](CO)C(=O)N[C@H](Cc1c[nH]c2ccccc12)C(=O)N[C@@H](CO)C(=O)N[C@@H](CCN)C(=O)N[C@H](CCN)C(=O)N[C@@H](Cc1ccccc1)C(=O)N[C@@H](CCC(=O)O)C(=O)N[C@H](C(=O)N[C@@H](C(=O)N[C@@H](C)C(=O)O)[C@@H](C)CC)C(C)C)C(C)C,> 100 µg/mL,> 100 µg/mL,> 100 µg/mL,> 100 µg/mL,> 100 µg/mL,> 100 µg/mL,50 µg/mL,> 100 µg/mL,> 100 µg/mL,> 100 µg/mL
CC[C@H](C)[C@@H](NC(=O)[C@@H](NC(=O)[C@H](CCC(=O)O)NC(=O)[C@H](Cc1ccccc1)NC(=O)[C@@H](CCN)NC(=O)[C@H](CCN)NC(=O)[C@H](CO)NC(=O)[C@@H](Cc1c[nH]c2ccccc12)NC(=O)[C@@H](CO)NC(=O)CNC(=O)[C@@H](CCN)NC(=O)[C@H](NC(=O)CCCC[C@@H]1SC[C@@H]2NC(=O)N[C@@H]21)C(C)C)C(C)C)C(=O)N[C@@H](C)C(=O)O,> 100 µg/mL,> 100 µg/mL,> 100 µg/mL,> 100 µg/mL,> 100 µg/mL,> 100 µg/mL,50 µg/mL,50 µg/mL,50 µg/mL,50 µg/mL
CCCCCCCCCCCCCC(=O)N[C@@H](C(=O)N[C@H](CCN)C(=O)NCC(=O)N[C@H](CO)C(=O)N[C@H](Cc1c[nH]c2ccccc12)C(=O)N[C@@H](CO)C(=O)N[C@@H](CCN)C(=O)N[C@H](CCN)C(=O)N[C@@H](Cc1ccccc1)C(=O)N[C@@H](CCC(=O)O)C(=O)N[C@H](C(=O)N[C@@H](C(=O)N[C@@H](C)C(=O)O)[C@@H](C)CC)C(C)C)C(C)C,> 100 µg/mL,> 100 µg/mL,> 100 µg/mL,> 100 µg/mL,> 100 µg/mL,> 100 µg/mL,12.5 µg/mL,> 100 µg/mL,> 100 µg/mL,> 100 µg/mL
CC[C@H](C)[C@@H](NC(=O)[C@@H](NC(=O)[C@H](CCC(=O)O)NC(=O)[C@H](Cc1ccccc1)NC(=O)[C@@H](CCN)NC(=O)[C@H](CCN)NC(=O)[C@H](CO)NC(=O)[C@@H](Cc1c[nH]c2ccccc12)NC(=O)[C@@H](CO)NC(=O)CNC(=O)[C@@H](CCN)NC(=O)[C@H](NC(=O)COCCOCCOC)C(C)C)C(C)C)C(=O)N[C@@H](C)C(=O)O,> 100 µg/mL,> 100 µg/mL,> 100 µg/mL,> 100 µg/mL,> 100 µg/mL,> 100 µg/mL,> 100 µg/mL,> 100 µg/mL,> 100 µg/mL,> 100 µg/mL
CC[C@@H](C)CC[C@@H](O)CC(=O)N[C@@H](C(=O)N[C@H](CCN)C(=O)NCC(=O)N[C@H](CO)C(=O)N[C@H](Cc1c[nH]c2ccccc12)C(=O)N[C@@H](CO)C(=O)N[C@@H](CCN)C(=O)N[C@H](CCN)C(=O)N[C@@H](Cc1ccccc1)C(=O)N[C@@H](CCC(=O)O)C(=O)N[C@H](C(=O)N[C@@H](C(=O)N[C@@H](C)C(=O)O)[C@@H](C)CC)C(C)C)C(C)C,100 µg/mL,> 100 µg/mL,> 100 µg/mL,50 µg/mL,12.5 µg/mL,> 100 µg/mL,3.13 µg/mL,6.25 µg/mL,6.25 µg/mL,3.13 µg/mL
CC[C@@H](C)CC[C@H](O)CC(=O)N[C@@H](C(=O)N[C@H](CCN)C(=O)NCC(=O)N[C@H](CO)C(=O)N[C@H](Cc1c[nH]c2ccccc12)C(=O)N[C@@H](CO)C(=O)N[C@@H](CCN)C(=O)N[C@H](CCN)C(=O)N[C@@H](Cc1ccccc1)C(=O)N[C@@H](CCC(=O)O)C(=O)N[C@H](C(=O)N[C@@H](C(=O)N[C@@H](C)C(=O)O)[C@@H](C)CC)C(C)C)C(C)C,> 100 µg/mL,> 100 µg/mL,> 100 µg/mL,100 µg/mL,50 µg/mL,> 100 µg/mL,3.13 µg/mL,12.5 µg/mL,25 µg/mL,12.5 µg/mL

# Now those with a lower MIC (Listeria monocytogenes), led by results:
MIC (Listeria monocytogenes),MIC (Enterococcus faecium),MIC (Enterococcus faecalis),MIC (Pseudomonas aeruginosa),MIC (Acinetobacter baumannii),MIC (Staphylococcus aureus),MIC (Campylobacter jejuni),MIC (Klebsiella pneumoniae),MIC (Salmonella enterica),MIC (Escherichia coli),SMILES
25 µg/mL,100 µg/mL,> 100 µg/mL,> 100 µg/mL,12.5 µg/mL,> 100 µg/mL,0.4 µg/mL,6.25 µg/mL,12.5 µg/mL,6.25 µg/mL,CCCCCCCCCCC(=O)N[C@@H](C(=O)N[C@H](CCN)C(=O)NCC(=O)N[C@H](CO)C(=O)N[C@H](Cc1c[nH]c2ccccc12)C(=O)N[C@@H](CO)C(=O)N[C@@H](CCN)C(=O)N[C@H](CCN)C(=O)N[C@@H](Cc1ccccc1)C(=O)N[C@@H](CCC(=O)O)C(=O)N[C@H](C(=O)N[C@@H](C(=O)N[C@@H](C)C(=O)O)[C@@H](C)CC)C(C)C)C(C)C
25 µg/mL,100 µg/mL,> 100 µg/mL,> 100 µg/mL,12.5 µg/mL,> 100 µg/mL,0.4 µg/mL,6.25 µg/mL,12.5 µg/mL,6.25 µg/mL,CCCCCCCCCC(=O)N[C@@H](C(=O)N[C@H](CCN)C(=O)NCC(=O)N[C@H](CO)C(=O)N[C@H](Cc1c[nH]c2ccccc12)C(=O)N[C@@H](CO)C(=O)N[C@@H](CCN)C(=O)N[C@H](CCN)C(=O)N[C@@H](Cc1ccccc1)C(=O)N[C@@H](CCC(=O)O)C(=O)N[C@H](C(=O)N[C@@H](C(=O)N[C@@H](C)C(=O)O)[C@@H](C)CC)C(C)C)C(C)C
25 µg/mL,100 µg/mL,100 µg/mL,100 µg/mL,50 µg/mL,100 µg/mL,0.78 µg/mL,12.5 µg/mL,6.25 µg/mL,12.5 µg/mL,CCCCCCCCC(=O)N[C@@H](C(=O)N[C@H](CCN)C(=O)NCC(=O)N[C@H](CO)C(=O)N[C@H](Cc1c[nH]c2ccccc12)C(=O)N[C@@H](CO)C(=O)N[C@@H](CCN)C(=O)N[C@H](CCN)C(=O)N[C@@H](Cc1ccccc1)C(=O)N[C@@H](CCC(=O)O)C(=O)N[C@H](C(=O)N[C@@H](C(=O)N[C@@H](C)C(=O)O)[C@@H](C)CC)C(C)C)C(C)C
25 µg/mL,50 µg/mL,50 µg/mL,50 µg/mL,12.5 µg/mL,50 µg/mL,1.56 µg/mL,12.5 µg/mL,6.25 µg/mL,6.25 µg/mL,CC[C@H](C)[C@@H](NC(=O)[C@@H](NC(=O)[C@H](CCC(=O)O)NC(=O)[C@H](Cc1ccccc1)NC(=O)[C@@H](CCN)NC(=O)[C@H](CCN)NC(=O)[C@H](CO)NC(=O)[C@@H](Cc1c[nH]c2ccccc12)NC(=O)[C@@H](CO)NC(=O)CNC(=O)[C@@H](CCN)NC(=O)[C@H](NC(=O)CC12CC3CC(CC(C3)C1)C2)C(C)C)C(C)C)C(=O)N[C@@H](C)C(=O)O
